# Tests used:
# [1] = biological target: T1, RARα/N-CoR interaction (Homo sapiens, UniProt P10276); assay: Mammalian two hybrid, Gal-N-CoR / RARαVP16, in MPRO promyelocytes; type: cell-based; settings: ATRA six hours, KN62 48 hours
# T1 construct: expressed in transfected cells; host or cells: MPRO promyelocytes (murine), electroporated
# Text: (§1) Transient transfections and luciferase assays. Murine PT67 fibroblasts were transfected utilizing calcium phosphate precipitation. All hematopoietic cell lines were transiently transfected by electroporation as previously detailed (Johnson, B. et al., Molecular and Cellular Biology 19:3372-3382 (1999)). In the transient transfections the LXSN vector (M28248) served as the expression vector for the wild type and site-directed mutagenized CaMKII and RARα coding region cDNAs. Human cDNA homologous to the coding region of rat CaMKIINα, a CaMKII inhibitory protein, was obtained by RT-PCR from HL60 RNA and cloned into the LXSN vector. The RA-responsive luciferase reporter harbors the RARE from the RARβ2 promoter as previously detailed (Si, J., and Collins, S. J., Blood 100:4401-4409 (2002)). The PON838 plasmid, a β-galactosidase reporter driven by the β-actin promoter, was used as an internal control to determine transfection efficiency for calculating relative luciferase activity.
# [2] = test system: NB4 promyelocytic leukemia cell line; assay: Differentiation of NB4 cells (morphology, Cd11b); type: cell-based, human; settings: five days; for morphologic granulocytic differentiation of NB4: single agent, KN-62 5 μM, ATRA 10^−9 M
# Method: FIG. 7. KN-62 regulates the differentiation of myeloid leukemia cell lines. (A) Wright Giemsa-stained HL-60 cells either (a) uninduced or treated for five days with (b) KN62 or (c) ATRA. (d) CD11b expression in HL-60 cells after five days exposure to KN62 (5 μM) or ATRA (1 μM). (B) Wright-Giemsa stained NB4 cells treated for five days with KN-62 (5 μM) and ATRA as indicated. […] (C) Cd11b expression of NB4 cells treated for five days with the indicated concentrations of RA and/or KN-62. (D) Western blots with the indicated antibodies were performed on HL60 cell lysates following incubation with KN62 for the indicated period of time. (E) Western blots of NB4 cell lysates following a five day incubation with the indicated compounds.
# Antibodies and chemical reagents. Antibodies against RARα, βtubulin, CaMKIIα, CaMKIIβ, CaMKIIγ, CaMKIIδ, CaMKIα, as well as phosphospecific antibodies against CaMKII were all purchased from Santa Cruz Biotechnology. Antibodies against N-CoR and SMRT were from Upstate Biotechnology. CaMKIV antibody was from BD Biosciences. Anti-FLAG antibody was from Sigma while anti-HA antibody from Novachem. Quantitation of CD11b surface antigen expression was performed utilizing the fluorescent-activated cell sorter (FACS) with PE-conjugated anti-CD11b antibody from Becton Dickinson. KN-62, KN-93 and ionomycin were obtained from Calbiochem. ATRA and calmodulin agarose beads were from Sigma.
# [3] = test system: RAR transcriptional activity in HL60 cells; assay: RARE-driven luciferase reporter in HL60 cells; type: cell-based, human; settings: KN62 5 uM, KN93 5 uM, ATRA 1 uM, six hours
# Method: FIG. 1. CaM kinase isoform expression in hematopoietic cells. (A) The activity of an ATRA-responsive luciferase reporter (βRARE-tk-Luc, 25 μg) was assessed in electroporated HL60 cells six hours after treatment with the indicated concentrations of ionomycin and ATRA. (B) The activity of the luciferase reporter (βRARE-tk-Luc, 25 μg) was assessed in HL60 six hours after treatment with KN62 (5 uM), KN93 (5 uM) and ATRA (1 uM). (C) Western blots were performed utilizing the indicated antibodies. F9 (column 6) is a mouse embryonal carcinoma cell line. BaF3 (column 7) is a cultured pre-B cell line. BM cells (column 8) are kit-ligand dependent normal murine hematopoietic precursors. PT67 murine fibroblasts individually transduced with either rat CaMKIIα, human CaMKIα or human CaMKIV (column 9) together with brain lysates (column 1) serve as positive controls for the respective antibodies. (D) CaMK assays were performed on HL-60 cell lysates immunoprecipitated with the indicated antibodies.
# as §1
# [4] = test system: Stat3 Ser727 phosphorylation in TonB210 cells; assay: bcr-abl induced Stat3 Ser727 phosphorylation in TonB210.1 cells (Western blot); type: cell-based; settings: compound added immediately prior to doxycycline, 24 hours
# Method: FIG. 13. Stat3 is directly phosphorylated and activated by CaMKIIγ at Ser727. (A, i). Cell lysates from the indicated human leukemia cell lines were subjected to Western blots utilizing the indicated Stat3 antibodies. ii). Cell lysates from the same primary AML samples depicted in FIG. 1B were subjected to Western blots utilizing the indicated Stat3 antibodies. B). The IL-3 dependent TonB210.1 cells were deprived of IL-3 for 24 hours. The cells were then treated with the indicated compounds immediately prior to the addition of doxycycline. After an additional 24 hours cell lysates were harvested and subjected to Western blots with the indicated Stat3 antibodies. C). K562 cells were electroporated with a luciferase reporter driven by a Stat3 response element. The indicated concentrations of KN93 and the Stat 3 inhibitor, cucurbitacin I, were added and relative luciferase activity determined on cell lysates following 48 hours of culture. D, i) K562 cell lysates were immunoprecipitated with control IgG or a Stat3 antibody. The immunoprecipitates were then subjected to Western blot analysis with the indicated antibodies. ii,) A bacterial—expressed GST-Stat3 fusion protein was incubated in vitro with CaMKIIγ that had been immunoprecipitated from HL60 cells. Western blots were then performed on the reaction mixtures utilizing the indicated Stat3 antibodies. iii,). […]
# [5] = test system: autophosphorylated CaMKIIγ in TonB210.1 cells; assay: bcr-abl induced CaMKII autophosphorylation in TonB210.1 cells (Western blot); type: cell-based; settings: TonB210.1 deprived of IL-3 for 24 hours, compound added with doxycycline
# T1 sequence (P10276 whole entry): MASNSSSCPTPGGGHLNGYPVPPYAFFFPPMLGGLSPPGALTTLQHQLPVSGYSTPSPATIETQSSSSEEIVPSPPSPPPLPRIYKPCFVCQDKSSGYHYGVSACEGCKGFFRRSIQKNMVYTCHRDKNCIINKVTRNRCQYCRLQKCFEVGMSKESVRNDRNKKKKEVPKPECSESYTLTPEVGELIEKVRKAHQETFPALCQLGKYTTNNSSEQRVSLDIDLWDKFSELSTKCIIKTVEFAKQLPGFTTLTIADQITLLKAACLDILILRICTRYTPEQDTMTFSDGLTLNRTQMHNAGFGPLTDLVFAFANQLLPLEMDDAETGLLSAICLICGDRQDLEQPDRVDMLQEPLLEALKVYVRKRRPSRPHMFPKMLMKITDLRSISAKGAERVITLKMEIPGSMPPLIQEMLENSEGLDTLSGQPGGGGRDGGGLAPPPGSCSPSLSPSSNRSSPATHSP
Compound,(UAS)5-driven luciferase reporter activity (RARα/N-CoR interaction) [1],morphologic granulocytic differentiation of NB4 [2],RAR transcriptional activity (βRARE-tk-Luc reporter) [3],bcr-abl induced Stat3 Ser727 phosphorylation [4],bcr-abl (tet/doxycycline) restored CaMKII autophosphorylation [5],"granulocytic differentiation of NB4 (morphology, Cd11b surface antigen) ([2]; KN-62 (5 μM) in combination with RA 10^−9M-10^−10M)"
"CC1=C(/C=C/C(C)=C/C=C/C(C)=C/C(=O)O)C(C)(C)CCC1 [ATRA, All-trans retinoic acid]",marked decrease,little differentiation,–,–,–,–
CN([C@@H](Cc1ccc(OS(=O)(=O)c2cccc3cnccc23)cc1)C(=O)N1CCN(c2ccccc2)CC1)S(=O)(=O)c1cccc2cnccc12 [KN-62],significantly inhibits,relatively poor inducer,enhance,blocked,inhibited in a dose dependent manner,marked increase
COc1ccc(S(=O)(=O)N(CCO)c2ccccc2CN(C)C/C=C/c2ccc(Cl)cc2)cc1 [KN-93],–,–,enhance,blocked,inhibited in a dose dependent manner,–
